Several values for one entry are separate records, joined by “and”; a condition that tells them apart may be missing. Identical values can stand only once.
Test system: 435261-313-R-J1-PDC tumor spheroid viability
Assay: Anticancer human tumor 435261-313-R-J1-PDC patient-derived colon adenocarcinoma cell line growth inhibition [PI3K]
Settings: spheroids with HUVEC and MSC; for viability, T/C: stronger effect = lower value; active = viability on the fitted dose curve at most 10% of control; inactive = the rest
Procedure, shortened: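 Tumor cells grown as multi-cell spheroids with HUVEC endothelial cells and MSC fibroblast-like stroma were treated with targeted agents combined with inavolisib, alpelisib, duvelisib or copanlisib. Doses fell in half-log steps from near clinical Cmax, else from 10 microM. Viability was measured.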

[1] = curve of first compound, second compound 0.0316 µM
[2] = curve of first compound, second compound 0.1 µM
[3] = curve of first compound, second compound 0.316 µM
[4] = curve of first compound, second compound 1 µM
[5] = curve of first compound, second compound 3.16 µM
[6] = curve of first compound, second compound 10 µM
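Note: spheroids exposed to compounds for 7 days.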

Cn1cnc2c(F)c(Nc3ccc(Br)cc3Cl)c(C(=O)NOCCO)cc21 + CC(Nc1ncnc2nc[nH]c12)c1cc2cccc(Cl)c2c(=O)n1-c1ccccc1
15.5 nM: IC50 [1]
< 9.49 nM: IC50 [4] | IC50 [5] | IC50 [6]
inactive: viability, T/C (second compound 0.0316 µM, first compound 0.00949 µM) 60.3% | viability, T/C (second compound 0.0316 µM, first compound 0.03 µM) 35.7% | viability, T/C (second compound 0.0316 µM, first compound 0.0949 µM) 26.9% | viability, T/C (second compound 0.0316 µM, first compound 0.3 µM) 25.1% | viability, T/C (second compound 0.0316 µM, first compound 0.949 µM) 22.2% | viability, T/C (second compound 0.0316 µM, first compound 3 µM) 18.6% | viability, T/C (second compound 0.1 µM, first compound 0.00949 µM) 51.9% | viability, T/C (second compound 0.1 µM, first compound 0.03 µM) 34.6% | viability, T/C (second compound 0.1 µM, first compound 0.0949 µM) 23% | viability, T/C (second compound 0.1 µM, first compound 0.3 µM) 25% | viability, T/C (second compound 0.1 µM, first compound 0.949 µM) 21.7% | viability, T/C (second compound 0.1 µM, first compound 3 µM) 16.6% | viability, T/C (second compound 0.316 µM, first compound 0.00949 µM) 59.9% | viability, T/C (second compound 0.316 µM, first compound 0.03 µM) 38.6% | viability, T/C (second compound 0.316 µM, first compound 0.0949 µM) 25% | viability, T/C (second compound 0.316 µM, first compound 0.3 µM) 22.7% | viability, T/C (second compound 0.316 µM, first compound 0.949 µM) 21.4% | viability, T/C (second compound 0.316 µM, first compound 3 µM) 13.9% | viability, T/C (second compound 1 µM, first compound 0.00949 µM) 43.4% | viability, T/C (second compound 1 µM, first compound 0.03 µM) 34.5% | viability, T/C (second compound 1 µM, first compound 0.0949 µM) 26.4% | viability, T/C (second compound 1 µM, first compound 0.3 µM) 22.2% | viability, T/C (second compound 1 µM, first compound 0.949 µM) 21% | viability, T/C (second compound 1 µM, first compound 3 µM) 12.1% | viability, T/C (second compound 3.16 µM, first compound 0.00949 µM) 38.8% | viability, T/C (second compound 3.16 µM, first compound 0.03 µM) 29.6% | viability, T/C (second compound 3.16 µM, first compound 0.0949 µM) 21% | viability, T/C (second compound 3.16 µM, first compound 0.3 µM) 20.6% | viability, T/C (second compound 3.16 µM, first compound 0.949 µM) 19.5% | viability, T/C (second compound 3.16 µM, first compound 3 µM) 12.3% | viability, T/C (second compound 10 µM, first compound 0.00949 µM) 22.3% | viability, T/C (second compound 10 µM, first compound 0.03 µM) 21.1% | viability, T/C (second compound 10 µM, first compound 0.0949 µM) 19.6% | viability, T/C (second compound 10 µM, first compound 0.3 µM) 16.3% | viability, T/C (second compound 10 µM, first compound 0.949 µM) 15.9% | viability, T/C (second compound 10 µM, first compound 3 µM) 9.75%
10.7 nM: IC50 [2]
16 nM: IC50 [3]

CCN1CCN(Cc2ccc(Nc3ncc(F)c(-c4cc(F)c5nc(C)n(C(C)C)c5c4)n3)nc2)CC1 + CC(Nc1ncnc2nc[nH]c12)c1cc2cccc(Cl)c2c(=O)n1-c1ccccc1
inactive: viability, T/C (second compound 0.0316 µM, first compound 0.00316 µM) 97.8% | viability, T/C (second compound 0.0316 µM, first compound 0.01 µM) 81.8% | viability, T/C (second compound 0.0316 µM, first compound 0.0316 µM) 63.5% | viability, T/C (second compound 0.0316 µM, first compound 0.1 µM) 60.1% | viability, T/C (second compound 0.0316 µM, first compound 0.316 µM) 54.7% | viability, T/C (second compound 0.0316 µM, first compound 1 µM) 51.6% | viability, T/C (second compound 0.1 µM, first compound 0.00316 µM) 73.2% | viability, T/C (second compound 0.1 µM, first compound 0.01 µM) 82.4% | viability, T/C (second compound 0.1 µM, first compound 0.0316 µM) 99.5% | viability, T/C (second compound 0.1 µM, first compound 0.1 µM) 54.3% | viability, T/C (second compound 0.1 µM, first compound 0.316 µM) 48.6% | viability, T/C (second compound 0.1 µM, first compound 1 µM) 60.4% | viability, T/C (second compound 0.316 µM, first compound 0.00316 µM) 99.1% | viability, T/C (second compound 0.316 µM, first compound 0.01 µM) 110% | viability, T/C (second compound 0.316 µM, first compound 0.0316 µM) 74.2% | viability, T/C (second compound 0.316 µM, first compound 0.1 µM) 61.9% | viability, T/C (second compound 0.316 µM, first compound 0.316 µM) 46.6% | viability, T/C (second compound 0.316 µM, first compound 1 µM) 54.5% | viability, T/C (second compound 1 µM, first compound 0.00316 µM) 96% | viability, T/C (second compound 1 µM, first compound 0.01 µM) 85.3% | viability, T/C (second compound 1 µM, first compound 0.0316 µM) 59.7% | viability, T/C (second compound 1 µM, first compound 0.1 µM) 50.3% | viability, T/C (second compound 1 µM, first compound 0.316 µM) 44.9% | viability, T/C (second compound 1 µM, first compound 1 µM) 54.6% | viability, T/C (second compound 3.16 µM, first compound 0.00316 µM) 92.2% | viability, T/C (second compound 3.16 µM, first compound 0.01 µM) 62% | viability, T/C (second compound 3.16 µM, first compound 0.0316 µM) 43.9% | viability, T/C (second compound 3.16 µM, first compound 0.1 µM) 36.1% | viability, T/C (second compound 3.16 µM, first compound 0.316 µM) 42.1% | viability, T/C (second compound 3.16 µM, first compound 1 µM) 37.7% | viability, T/C (second compound 10 µM, first compound 0.00316 µM) 43.8% | viability, T/C (second compound 10 µM, first compound 0.01 µM) 42.4% | viability, T/C (second compound 10 µM, first compound 0.0316 µM) 32.5% | viability, T/C (second compound 10 µM, first compound 0.1 µM) 30.7% | viability, T/C (second compound 10 µM, first compound 0.316 µM) 30.4% | viability, T/C (second compound 10 µM, first compound 1 µM) 34.6%
20.8 nM: IC50 [5]
< 3.16 nM: IC50 [6]
222 nM: IC50 [4]
> 1000 nM: IC50 [1] | IC50 [2] | IC50 [3]

Cn1ncnc1[C@H]1c2n[nH]c(=O)c3cc(F)cc(c23)N[C@@H]1c1ccc(F)cc1
> 100 nM: IC50 (curve of compound)
inactive: viability, T/C (compound 0.00316 µM) 93.3% and 79.8% (2×) and 89.1% | viability, T/C (compound 0.1 µM) 62.6% [middle of 4 runs]

— PubChem BioAssay AID1963976 (Molecular Pharmacology Branch, DTP, NCI, 2024)
